In patent publication US12239729B2, “TRPV3 agonists for the treatment of skin conditions” (Soricimed Biopharma Inc., priority 2012, dated 2025):
“Also recorded” adds a separate entry of the source. Peptide text beside a SMILES is read from it.

Assays:
Assay type in all cases: cell-based, human
HaCaT cells [1] = assay: Cell death assay in HaCaT keratinocytes (Example 3)
Experimental: In an initial experiment, various concentrations of SOR-C13 and SOR-C27 were tested on human keratinocytes (HaCaT cells) for their ability to cause cell death. The negative control was Phosphate Buffered Saline (PBS) and the positive control was Glycolic Acid (20 mM), a known activator of TRPV3. At the concentrations used (10, 100 and 1000 μM) only the 1000 μM concentration produced a statistically significant increase in cell death over PBS (FIG. 6). […] The two peptides appeared to be indistinguishable in their activity with respect to the number of dead cells
Both peptides were dissolved in PBS at 30 mM concentration at ambient temperature based on the peptide content with a correction factor (SOR-C13 concentration was multiplied by 1.19, while SOR-C27 concentration was multiplied by 1.29). Stock solutions were sterilized by passing through a 0.2 μm syringe filter prewashed with PBS. Stocks of peptides were kept at −20° C. during the study.
Human immortalized keratinocyte HaCaT cells (Cat. #T0020001) were from Addexbio Technologies (San Diego, California, USA). In general, HaCaT cells were cultured in 37° C. CO2 incubator in DEME with 1.0 g/L glucose (Lonza, Cat #12-707F) with 10% FBS. Glutamine (2 mM), penicillin (100 I.U.) and streptomycin (100 μg/ml) were added to the media. Cells were sub-cultured twice per week using Trypsin-0.25% EDTA to detach cells.
HaCaT cells were plated at ˜8×10^5/well in each well of the 12-well tissue culture plates in triplicates in 2 ml culture media. Twenty-four (24) hours post-plating, cells were treated with PBS, or SOR-C13 at 10, 100 and 1000 μM, or SOR-C27 at 10, 100 and 1000 μM, or glycolic acid at 20 mM.
At 72 hours post-treatment, the incubation was terminated and supernatant was collected. Attached cells were washed with 2 ml PBS, and trypsinized. Suspension of cells was combined with supernatant and spun at 1000 g for 5 minutes. The cell pellet was then resuspended in 100 μl PBS for cell counting using trypan blue exclusion.
Student's t-test was used to compare the group treated with a test article vs. the group treated with PBS. Standard errors of mean (SEM) were used to represent variation of data.

HaCaT cells [2] = assay: Cell death assay in HaCaT cells with SOR-C13 fragments (Example 5); conditions: 100 and 1000 μM tested, 72 hours
Experimental: Solutions of each of the peptides listed in Table 2 were made based on formulation weight without correction of purity in PBS at a 100 mM stock concentration. Stock solutions were sterilized by passing through a 0.2 μm syringe filter prewashed with PBS. Stocks of peptides were kept in aliquots at −20° C. during the study. Glycolic acid was made in a 5M stock in PBS and filtered using a 0.2 μm syringe filter and kept at −20° C.
Human immortalized keratinocyte HaCaT cells were cultured as described in Example 3.
HaCaT cells were plated at ˜8×10^5/well in each well of the 12-well tissue culture plates in triplicates in 2 ml culture media. Twenty-four (24) hours post-plating, cells were treated with PBS, or peptide stocks at 100 and 1000 μM (in triplicates), or glycolic acid at 20 mM (single data point). The Cell Death Assay was otherwise performed as described in Example 3.

HaCaT cells [3] = assay: Wound healing (scratch gap closure) assay in HaCaT cells (Example 4); conditions: for Migration Score (gap closure activity): HaCaT wound model
Experimental: SOR-C13 and SOR-C27 were tested for their ability to promote tissue repair in a human keratinocytes (HaCaT) model of wound healing. In this model, cells are grown to confluency and then a gap is made in the sheet of cells by scratching the surface of the cells. After treating the cells for 24 hours, the closure of the gap, and the state of the cells in terms of polarization and mobility into the gap, are measured as a surrogate for activation of the wound healing response and the proliferation and/or migration of cells involved in tissue repair.
HaCaT cells were plated at 4×10^5 per well in 12-well tissue culture plates in MEGM Bullet Kit (Lonza, Cat. #CC-3150) containing bovine pituitary extracts (BPE), hEGF, insulin, and hydrocortisone. The total volume was 2 ml. About 24 hours later, a gap at the bottom of each well was generated by scratching with a sterile pipette tip. The supernatant was aspirated and cells were washed gently once with PBS. Fresh media (MEGM Bullet Kit, 2 ml) was added after the wash. Cells were treated in duplicates with PBS, or SOR-C13 at 10, 100 and 1000 μM, or SOR-C27 at 10, 100 and 1000 μM, and 100 μM valproic acid. After 24 hours, each well was examined under the microscope to semi-quantify the gap closure by cell migration. A digital camera fixed to the microscope was used to capture images of cells.
Under visual inspection, the wound healing results was scored as: • “−”: minimal cell polarization toward wound, no initiation of cell protrusion into the gap; no change in the wound gap; • “+”: cell polarization toward wound was observed; cell protrusion was observed; cell migration started but gap size is between 75 to 100% of original wound gap; • “++”: cell polarization toward the wound was observed; cell protrusion was observed; cell migration across the gap was observed, and gap size ≤½ of original wound gap; • “+++”: cell polarization toward wound was observed; cell protrusion was observed; cell migration across the gap was observed, and gap size ≤⅓ of original wound gap. Results

CC(C)C[C@H](NC(=O)[C@H](Cc1ccccc1)NC(=O)[C@H](CCC(=O)O)NC(=O)[C@@H](N)CCCCN)C(=O)N[C@@H](Cc1cnc[nH]1)C(=O)N1CCC[C@H]1C(=O)N[C@@H](CO)C(=O)N[C@@H](CCCCN)C(=O)N[C@H](C(=O)N[C@@H](CC(=O)O)C(=O)N[C@@H](CC(C)C)C(=O)N1CCC[C@H]1C(=O)N[C@@H](CCCNC(=N)N)C(=O)O)C(C)C [SOR-C13, KEFLHPSKVDLPR] (H-KEFLHPSKVDLPR-OH)
increase in cell death compared to PBS treatment (HaCaT cells [1]; 1 mM, 72-hour incubation): ~2 fold | induction of cell death compared to PBS (HaCaT cells [1]; 1 mM, 72 hours, p<0.05): significantly induced cell death | number of dead cells (HaCaT cells [1]; 1 mM, 72 hours, trypan blue exclusion): ~2.2×10^4 /well | induction of cell death compared to PBS (HaCaT cells [1]; 10 or 100 μM, 72 hours): no significant difference in the numbers of dead cells; also recorded: did not have a significant effect | induction of cell death (words) (HaCaT cells [2]): no significant effect to induce cell death; also recorded: no increase in cell death above the PBS treatment | effect on migration of HaCaT cells through the scratch (words) (HaCaT cells [3]; 10 μM, 24 hours): little difference compared to PBS treatment | Migration Score (gap closure activity) (HaCaT cells [3]; 10 uM, 24 hours): + (cell polarization toward wound was observed; cell protrusion was observed; cell migration started but gap size is between 75 to 100% of original wound gap) | effect on migration of HaCaT cells through the scratch (words) (HaCaT cells [3]; 100 μM, 24 hours): clearly had an effect to induce cell migration | Migration Score (gap closure activity) (HaCaT cells [3]; 100 uM, 24 hours): ++ (cell polarization toward the wound was observed; cell protrusion was observed; cell migration across the gap was observed, and gap size ≤½ of original wound gap) | effect on migration of HaCaT cells through the scratch (words) (HaCaT cells [3]; 1000 μM, 24 hours): dramatically closed | Migration Score (gap closure activity) (HaCaT cells [3]; 1000 uM, 24 hours): +++ (cell polarization toward wound was observed; cell protrusion was observed; cell migration across the gap was observed, and gap size ≤⅓ of original wound gap) | effect on migration of HaCaT cells over the tested concentrations (HaCaT cells [3]; 10, 100, 1000 μM, 24 hours): promote tissue repair in a dose responsive manner; also recorded: dose-dependent effect on promoting the migration; also recorded: induced migration of HaCaT cells in a dose-dependent manner | concentrations at which wound healing of HaCaT cells was promoted (HaCaT cells [3]; 24-hour incubation): ≥ 100 µM
